Tests used:
[1] = target: T1, recombinant human 17β-HSD1 (Homo sapiens, UniProt P14061); assay: Inhibition of recombinant human 17β-HSD1 (estrone to estradiol conversion, HPLC/radioactivity); format: biochemical; details: compound 100 nM; 30 nM estrone, 1 mM NADPH, 30 min RT
T1 construct: made in house; host or cells: Sd9 (Sf9) insect cells, baculovirus (Bac to Bac Expression System)
T1 sequence (P14061 1-328): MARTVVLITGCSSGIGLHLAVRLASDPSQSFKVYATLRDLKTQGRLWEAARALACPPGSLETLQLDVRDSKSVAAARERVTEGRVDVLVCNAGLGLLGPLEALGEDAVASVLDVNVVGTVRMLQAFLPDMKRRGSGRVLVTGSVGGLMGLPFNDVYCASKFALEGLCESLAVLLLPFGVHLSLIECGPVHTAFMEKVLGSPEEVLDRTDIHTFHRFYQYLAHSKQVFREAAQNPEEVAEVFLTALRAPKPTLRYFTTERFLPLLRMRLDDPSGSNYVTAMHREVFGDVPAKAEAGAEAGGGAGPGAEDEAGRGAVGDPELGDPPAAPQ
Method in brief: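 Microsomal human 17β-HSD1 from Sf9 baculovirus (1 μg/ml) was incubated 30 min at RT in 20 mM KH2PO4 pH 7.4 with 30 nM ^3H-estrone, 1 mM NADPH and inhibitor at 1 μM or 0.1 μM (1% DMSO). Estrone and estradiol were separated by HPLC with radioactivity detection. % inhibition = 100 − % conversion relative to uninhibited control.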

[2] = system: HSD1 enzyme that is expressed in rabbit placenta tissue; assay: Inhibition of E1 to E2 conversion in rabbit placenta tissue homogenate; format: biochemical; details: compound 100 nM, 30 nM estrone, 1 mM β-NADPH, 30 min
Method in brief: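 Rabbit placenta homogenate (20 mM KH2PO4, 1 mM EDTA, pH 7.4) incubated 30 min with 1 mM β-NADPH, 30 nM estrone plus 5 nM [3H]-estrone tracer, and inhibitor at 1 μM or 0.1 μM (1% DMSO). Stopped with TCA; estrone and estradiol resolved by HPLC with scintillation counting; % inhibition = 100 − % conversion relative to uninhibited control.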

Question: For `COc1ccc(NC(=O)CC[C@@H]2c3c[nH]nc3[C@@]3(C)CCC4c5cccc(F)c5CCC4C23)nc1` (stereo partly drawn) [Compound 21, 3-((8aS,12S)-3-fluoro-8a-methyl-1,2,6b,7,8,8a,10,12,12a,12b-decahydronaphtho[2′,1′:4,5]indeno[1,2-c]pyrazol-12-yl)-N-(5-methoxypyridin-2-yl)propanamide], which inhibition at 0.1 µM [1] is on record?
Answer: 97%

Question: What about the “Rabbit placenta inhibition % @100 nM” value [2] of the same compound?
Answer: 68%

Question: What does the source list for `CCN(CC)C(=O)CC[C@@H]1c2c[nH]nc2[C@@]2(C)CCC3c4cccc(F)c4CCC3C12` (stereo partly drawn) [Compound 216, N,N-diethyl-3-((8aS,12S)-3-fluoro-8a-methyl-1,2,6b,7,8,8a,10,12,12a,12b-decahydronaphtho[2′,1′:4,5]indeno[1,2-c]pyrazol-12-yl)propanamide]?
Answer: inhibition at 0.1 µM [1]: 93%; Rabbit placenta inhibition % @100 nM [2]: 10%

Question: What does the source list for `CN1CCN(c2ccc(NC(=O)CC[C@@H]3c4c[nH]nc4[C@@]4(C)CCC5c6cccc(F)c6CCC5C34)nc2)CC1` (stereo partly drawn) [Compound 42, 3-((8aS,12S)-3-fluoro-8a-methyl-1,2,6b,7,8,8a,10,12,12a,12b-decahydronaphtho[2′,1′:4,5]indeno[1,2-c]pyrazol-12-yl)-N-(5-(4-methylpiperazin-1-yl)pyridin-2-yl)propanamide]?
Answer: inhibition at 0.1 µM [1]: 91%; Rabbit placenta inhibition % @100 nM [2]: 82%

Question: Which inhibition at 0.1 µM [1] does the source give for `C[C@]12CCC3c4cccc(F)c4CCC3C1[C@H](CCC(=O)N1CCC3(CCOCC3)C1)c1c[nH]nc12` (stereo partly drawn) [Compound 219, 3-((8aS,12S)-3-fluoro-8a-methyl-1,2,6b,7,8,8a,10,12,12a,12b-decahydronaphtho[2′,1′:4,5]indeno[1,2-c]pyrazol-12-yl)-1-(8-oxa-2-azaspiro[4.5]decan-2-yl)propan-1-one] here?
Answer: 91%

Question: What about the “Rabbit placenta inhibition % @100 nM” value [2] of the same compound?
Answer: 14%

Question: Which inhibition at 0.1 µM [1] does the source give for `C[C@]12CCC3c4ccccc4CCC3C1[C@H](CCC(=O)Nc1ccc(F)cn1)c1c[nH]nc12` (stereo partly drawn) [Compound 159, N-(5-fluoropyridin-2-yl)-3-((8aS,12S)-8a-methyl-1,2,6b,7,8,8a,10,12,12a,12b-decahydronaphtho[2′,1′:4,5]indeno[1,2-c]pyrazol-12-yl)propanamide] here?
Answer: 90%

Question: What about the “Rabbit placenta inhibition % @100 nM” value [2] of the same compound?
Answer: 23%

Question: Which inhibition at 0.1 µM [1] does the source give for `C[C@]12CCC3c4ccccc4CCC3C1[C@H](CCC(=O)Nc1ccccn1)c1c[nH]nc12` (stereo partly drawn) [Compound 171, 3-((8aS,12S)-8a-methyl-1,2,6b,7,8,8a,10,12,12a,12b-decahydronaphtho[2′,1′:4,5]indeno[1,2-c]pyrazol-12-yl)-N-(pyridin-2-yl)propanamide] here?
Answer: 89%

Question: And the “Rabbit placenta inhibition % @100 nM” value [2]?
Answer: 27%

Question: `CC(C)c1ccc(NC(=O)CC[C@@H]2c3c[nH]nc3[C@@]3(C)CCC4c5ccccc5CCC4C23)nc1` (stereo partly drawn) [Compound 138, N-(5-isopropylpyridin-2-yl)-3-((8aS,12S)-8a-methyl-1,2,6b,7,8,8a,10,12,12a,12b-decahydronaphtho[2′,1′:4,5]indeno[1,2-c]pyrazol-12-yl)propanamide] was tested. Which inhibition at 0.1 µM [1] did it give?
Answer: 94%

Question: What about the “Rabbit placenta inhibition % @100 nM” value [2] of the same compound?
Answer: 18%

Question: How did the inhibition at 0.1 µM [1] turn out when `C[C@]12CCC3c4cccc(F)c4CCC3C1[C@H](CCC(=O)Nc1ccccn1)c1c[nH]nc12` (stereo partly drawn) [Compound 18, 3-((8aS,12S)-3-fluoro-8a-methyl-1,2,6b,7,8,8a,10,12,12a,12b-decahydronaphtho[2′,1′:4,5]indeno[1,2-c]pyrazol-12-yl)-N-(pyridin-2-yl)propanamide] was run?
Answer: 91%

Question: And the “Rabbit placenta inhibition % @100 nM” value [2]?
Answer: 44%

Question: With `Cn1ccc(NC(=O)CC[C@@H]2c3c[nH]nc3[C@@]3(C)CCC4c5cccc(F)c5CCC4C23)n1` (stereo partly drawn) [Compound 54, 3-((8aS,12S)-3-fluoro-8a-methyl-1,2,6b,7,8,8a,10,12,12a,12b-decahydronaphtho[2′,1′:4,5]indeno[1,2-c]pyrazol-12-yl)-N-(1-methyl-1H-pyrazol-3-yl)propanamide] as the compound, how does the inhibition at 0.1 µM [1] read?
Answer: 87%

Question: What about the “Rabbit placenta inhibition % @100 nM” value [2] of the same compound?
Answer: 52%

Question: `C[C@]12CCC3c4ccc(F)cc4CCC3C1[C@H](CCC(=O)Nc1ccc(N3CCOCC3)cn1)c1c[nH]nc12` (stereo partly drawn) [Compound 96, 3-((8aS,12S)-4-fluoro-8a-methyl-1,2,6b,7,8,8a,10,12,12a,12b-decahydronaphtho[2′,1′:4,5]indeno[1,2-c]pyrazol-12-yl)-N-(5-morpholinopyridin-2-yl)propanamide] was tested. Which inhibition at 0.1 µM [1] did it give?
Answer: 74%

Question: And the “Rabbit placenta inhibition % @100 nM” value [2]?
Answer: 42%

Question: What does the source list for `C[C@]12CCC3c4cccc(F)c4CCC3C1[C@H](CCC(=O)N1Cc3ccccc3C1)c1c[nH]nc12` (stereo partly drawn) [Compound 57, 3-((8aS,12S)-3-fluoro-8a-methyl-1,2,6b,7,8,8a,10,12,12a,12b-decahydronaphtho[2′,1′:4,5]indeno[1,2-c]pyrazol-12-yl)-1-(isoindolin-2-yl)propan-1-one]?
Answer: inhibition at 0.1 µM [1]: 92%; Rabbit placenta inhibition % @100 nM [2]: 48%

Question: What does the source list for `CC(C)c1ccc(NC(=O)CC[C@@H]2c3c[nH]nc3[C@@]3(C)CCC4c5ccc(F)cc5CCC4C23)nc1` (stereo partly drawn) [Compound 87, 3-((8aS,12S)-4-fluoro-8a-methyl-1,2,6b,7,8,8a,10,12,12a,12b-decahydronaphtho[2′,1′:4,5]indeno[1,2-c]pyrazol-12-yl)-N-(5-isopropylpyridin-2-yl)propanamide]?
Answer: inhibition at 0.1 µM [1]: 87%; Rabbit placenta inhibition % @100 nM [2]: 16%

Question: `C[C@]12CCC3c4cccc(F)c4CCC3C1[C@H](CCC(=O)NC1CCCCC1)c1c[nH]nc12` (stereo partly drawn) [Compound 207, N-cyclohexyl-3-((8aS,12S)-3-fluoro-8a-methyl-1,2,6b,7,8,8a,10,12,12a,12b-decahydronaphtho[2′,1′:4,5]indeno[1,2-c]pyrazol-12-yl)propanamide] was tested. Which inhibition at 0.1 µM [1] did it give?
Answer: 95%

Question: And the “Rabbit placenta inhibition % @100 nM” value [2]?
Answer: 14%

Question: `C[C@]12CCC3c4cccc(F)c4CCC3C1[C@H](CCC(=O)N1CCCC1)c1c[nH]nc12` (stereo partly drawn) [Compound 210, 3-((8aS,12S)-3-fluoro-8a-methyl-1,2,6b,7,8,8a,10,12,12a,12b-decahydronaphtho[2′,1′:4,5]indeno[1,2-c]pyrazol-12-yl)-1-(pyrrolidin-1-yl)propan-1-one] was tested. Which inhibition at 0.1 µM [1] did it give?
Answer: 94%

Question: And the “Rabbit placenta inhibition % @100 nM” value [2]?
Answer: 19%

Question: For `C[C@]12CCC3c4cccc(F)c4CCC3C1[C@H](CCC(=O)Nc1ncccc1F)c1c[nH]nc12` (stereo partly drawn) [Compound 231, 3-((8aS,12S)-3-fluoro-8a-methyl-1,2,6b,7,8,8a,10,12,12a,12b-decahydronaphtho[2′,1′:4,5]indeno[1,2-c]pyrazol-12-yl)-N-(3-fluoropyridin-2-yl)propanamide], which inhibition at 0.1 µM [1] is on record?
Answer: 86%

Question: What about the “Rabbit placenta inhibition % @100 nM” value [2] of the same compound?
Answer: 35%

Question: What does the source list for `COc1ccnc(NC(=O)CC[C@@H]2c3c[nH]nc3[C@@]3(C)CCC4c5ccccc5CCC4C23)c1` (stereo partly drawn) [Compound 165, N-(4-methoxypyridin-2-yl)-3-((8aS,12S)-8a-methyl-1,2,6b,7,8,8a,10,12,12a,12b-decahydronaphtho[2′1′:4,5]indeno[1,2-c]pyrazol-12-yl)propanamide]?
Answer: inhibition at 0.1 µM [1]: 85%; Rabbit placenta inhibition % @100 nM [2]: 34%

Question: `CC(C)c1ccc(NC(=O)CC[C@@H]2c3c[nH]nc3[C@@]3(C)CCC4c5cccc(F)c5CCC4C23)nc1` (stereo partly drawn) [Compound 36, 3-((8aS,12S)-3-fluoro-8a-methyl-1,2,6b,7,8,8a,10,12,12a,12b-decahydronaphtho[2′,1′:4,5]indeno[1,2-c]pyrazol-12-yl)-N-(5-isopropylpyridin-2-yl)propanamide] was tested. Which inhibition at 0.1 µM [1] did it give?
Answer: 100%

Question: And the “Rabbit placenta inhibition % @100 nM” value [2]?
Answer: 55%

Question: Which inhibition at 0.1 µM [1] does the source give for `C[C@]12CCC3c4cccc(F)c4CCC3C1[C@H](CCC(=O)N1CCNC(=O)C1)c1c[nH]nc12` (stereo partly drawn) [Compound 24, 4-(3-((8aS,12S)-3-fluoro-8a-methyl-1,2,6b,7,8,8a,10,12,12a,12b-decahydronaphtho[2′,1′:4,5]indeno[1,2-c]pyrazol-12-yl)propanoyl)piperazin-2-one] here?
Answer: 83%

Question: And the “Rabbit placenta inhibition % @100 nM” value [2]?
Answer: 27%

Question: Which inhibition at 0.1 µM [1] does the source give for `C[C@]12CCC3c4cccc(F)c4CCC3C1[C@H](CCC(=O)Nc1ncc(F)cc1F)c1c[nH]nc12` (stereo partly drawn) [Compound 9, N-(3,5-difluoropyridin-2-yl)-3-((8aS,12S)-3-fluoro-8a-methyl-1,2,6b,7,8,8a,10,12,12a,12b-decahydronaphtho[2′,1′:4,5]indeno[1,2-c]pyrazol-12-yl)propanamide] here?
Answer: 82%

Question: What about the “Rabbit placenta inhibition % @100 nM” value [2] of the same compound?
Answer: 26%

Question: `CN(C)C(=O)c1ccc(NC(=O)CC[C@@H]2c3c[nH]nc3[C@@]3(C)CCC4c5ccc(Cl)cc5CCC4C23)nc1` (stereo partly drawn) [Compound 126, 6-(3-((8aS,12S)-4-chloro-8a-methyl-1,2,6b,7,8,8a,10,12,12a,12b-decahydronaphtho[2′,1′:4,5]indeno[1,2-c]pyrazol-12-yl)propanamido)-N,N-dimethylnicotinamide] was tested. Which inhibition at 0.1 µM [1] did it give?
Answer: 89%

Question: And the “Rabbit placenta inhibition % @100 nM” value [2]?
Answer: 37%

Question: For `C[C@]12CCC3c4cccc(F)c4CCC3C1[C@H](CCC(=O)Nc1cnccn1)c1c[nH]nc12` (stereo partly drawn) [Compound 51, 3-((8aS,12S)-3-fluoro-8a-methyl-1,2,6b,7,8,8a,10,12,12a,12b-decahydronaphtho[2′,1′:4,5]indeno[1,2-c]pyrazol-12-yl)-N-(pyrazin-2-yl)propanamide], which inhibition at 0.1 µM [1] is on record?
Answer: 90%

Question: And the “Rabbit placenta inhibition % @100 nM” value [2]?
Answer: 59%

From US20220041647A1, “ESTRA-1,3,5(10)-TRIENE COMPOUNDS CONDENSED IN POSITION 16(17) WITH A PYRAZOLE RING AS INHIBITORS OF 17-HSD1” (FORENDO PHARMA LTD, priority 2018, published 2022)
